Assay results as given in ChEMBL document CHEMBL5042519, “Design and synthesis of marine sesterterpene analogues as novel estrogen receptor α degraders for breast cancer treatment” (Eur J Med Chem, 2022).
pIC50: −log10 of the molar value. Active and inactive are the calls of the source. No cut-off for these calls is given here.

Experiments:
[1] = system: MCF7; assay: Antiproliferative activity against human MCF7/ADR cells assessed as reduction in cell viability after 48 hrs by MTT assay; type: functional, cell-based; conditions: MCF7, 48 h
[2] = Resistance index, ratio of IC50 for antiproliferative activity against human MCF7/ADR cells to IC50 for antiproliferative activity against human MCF7 cells; type: functional
[3] = system: MDA-MB-231; assay: Antiproliferative activity against human MDA-MB-231 cells assessed as reduction in cell viability after 48 hrs by MTT assay; conditions: MDA-MB-231, 48 h
[4] = molecular target: T1, Estrogen receptor (Homo sapiens) (UniProt P03372); assay: Induction of ERalpha degradation in human MCF7 cells assessed as decrease in ERalpha protein expression at 0.5 to 3 uM for 24 hrs by Western blot analysis; type: cell-based; conditions: dose 0.5-3 µM
T1 sequence (whole entry): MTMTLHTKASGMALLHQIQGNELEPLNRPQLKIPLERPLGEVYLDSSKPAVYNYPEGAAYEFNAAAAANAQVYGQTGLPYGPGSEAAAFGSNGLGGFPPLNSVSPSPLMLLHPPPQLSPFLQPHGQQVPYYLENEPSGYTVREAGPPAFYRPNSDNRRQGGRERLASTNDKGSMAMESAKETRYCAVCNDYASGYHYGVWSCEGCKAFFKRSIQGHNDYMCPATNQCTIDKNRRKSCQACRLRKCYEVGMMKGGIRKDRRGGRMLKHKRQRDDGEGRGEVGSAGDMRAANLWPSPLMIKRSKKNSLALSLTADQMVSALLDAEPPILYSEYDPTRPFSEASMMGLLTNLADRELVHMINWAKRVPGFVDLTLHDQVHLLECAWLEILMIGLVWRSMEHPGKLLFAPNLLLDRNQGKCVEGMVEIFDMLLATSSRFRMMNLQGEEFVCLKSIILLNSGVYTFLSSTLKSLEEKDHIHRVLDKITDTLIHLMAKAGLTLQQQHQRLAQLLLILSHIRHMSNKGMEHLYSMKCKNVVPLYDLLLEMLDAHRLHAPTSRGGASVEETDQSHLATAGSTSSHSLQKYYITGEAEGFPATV

[5] = molecular target: T1, Estrogen receptor (Homo sapiens); assay: Induction of ERalpha degradation in human MCF7 cells assessed as decrease in ERalpha protein expression at 3 uM measured upto 24 hrs by Western blot analysis; type: cell-based; conditions: time hrs <=24, TDE = time-dependent effect
[6] = molecular target: T1, Estrogen receptor (Homo sapiens); assay: Induction of ERalpha degradation in human MCF7 cells assessed as ERalpha level at 3 uM measured after 24 hrs in presence of proteasome inhibitor MG132 by Western blot analysis; type: cell-based
[7] = system: MCF7; assay: Inhibition of colony formation in human MCF7 cells at 0.5 to 2 uM measured after 9 days by crystal violet staining based assay; type: functional, cell-based; conditions: dose 0.5-2 µM, time 9.0 day
[8] = system: MCF7; assay: Effect on cell morphology in human MCF7 cells assessed as appearance of round cells at 0.5 to 2 uM measured after 24 hrs by Hoechst 33342 staining based fluorescence microscopy; type: functional; conditions: dose 0.5-2 µM
[9] = system: MCF7; assay: Induction of apoptosis in human MCF7 cells assessed as early apoptotic cells at 1 uM incubated for 24 hrs by annexin-V and PI staining based flow cytometry analysis relative to control; type: functional
[10] = system: MCF7; assay: Induction of apoptosis in human MCF7 cells assessed as early apoptotic cells at 2 uM incubated for 24 hrs by annexin-V and PI staining based flow cytometry analysis relative to control; type: functional
[11] = system: MCF7; assay: Induction of ROS generation in human MCF7 cells assessed as increase in intracellular ROS level at 0.5 to 2 uM and measured after 24 hrs by DCFH-DA staining based flow cytometry method; type: functional, cell-based; conditions: dose 0.5-2 µM
[12] = system: MCF7; assay: Induction of mitochondrial membrane potential loss in human MCF7 cells at 2 uM measured after 24 hrs by JC-1 staining based flow cytometry; type: functional, cell-based
[13] = system: MCF7; assay: Induction of apoptosis in human MCF7 cells assessed as increase in Bax protein level at 0.5 to 3 uM and measured after 24 hrs Western blot analysis relative to control; type: functional, cell-based; conditions: dose 0.5-3 µM
[14] = system: MCF7; assay: Induction of apoptosis in human MCF7 cells assessed as increase in cytochrome C protein level at 0.5 to 3 uM and measured after 24 hrs Western blot analysis relative to control; type: functional, cell-based; conditions: dose 0.5-3 µM
[15] = system: MCF7; assay: Induction of apoptosis in human MCF7 cells assessed as increase in cleaved caspase 3 level at 0.5 to 3 uM and measured after 24 hrs Western blot analysis relative to control; type: functional, cell-based; conditions: dose 0.5-3 µM
[16] = system: MCF7; assay: Induction of apoptosis in human MCF7 cells assessed as increase in cleaved caspase 9 level at 0.5 to 3 uM and measured after 24 hrs Western blot analysis relative to control; type: functional, cell-based; conditions: dose 0.5-3 µM
[17] = system: MCF7; assay: Cell cycle arrest in human MCF7 cells assessed as accumulation at G1 phase at 2 uM measured after 24 hrs by propidium iodide staining based flow cytometry (reference value: 73.45 %); type: functional
[18] = system: MCF7; assay: Cell cycle arrest in human MCF7 cells assessed as decrease in G2/M phase accumulation at 0.5 to 2 uM and measured after 24 hrs by propidium iodide staining based flow cytometry relative to control; type: functional; conditions: dose 0.5-2 µM
[19] = system: MCF7; assay: Cell cycle arrest in human MCF7 cells assessed as reduction in CDK4 expression at 0.5 to 3 uM and measured after 24 hrs by Western blot analysis; type: functional, cell-based; conditions: dose 0.5-3 µM
[20] = Metabolic stability in rat liver microsomes assessed as assessed as intrinsic clearance incubated for 60 mins in presence of NADPH by UPLC-MS analysis; type: ADME, Microsome; conditions: read-out: CLH
[21] = molecular target: T1, Estrogen receptor (Homo sapiens); assay: Induction of ERalpha degradation in human MCF7 cells assessed as ERalpha level at 3 uM measured after 24 hrs in presence of HyT by Western blot analysis; type: cell-based
[22] = system: MCF7; assay: Effect on cell morphology in human MCF7 cells assessed as chromatin shrinkage at 0.5 to 2 uM measured after 24 hrs by Hoechst 33342 staining based fluorescence microscopy; type: functional; conditions: dose 0.5-2 µM
[23] = system: MCF7; assay: Effect on cell morphology in human MCF7 cells assessed as appearance of apoptotic bodies at 0.5 to 2 uM measured after 24 hrs by Hoechst 33342 staining based fluorescence microscopy; type: functional; conditions: dose 0.5-2 µM

CC1=CC(=O)[C@H]2/C(C=O)=C\C[C@H]3[C@@H]([C@@H](C)/C=C\C=C/C(=O)OCCOCCOCCOC(=O)CC45CC6CC(CC(C6)C4)C5)CC[C@]3(C)C[C@H]12
pIC50 [1]: 6.32
Ratio IC50 [2]: 1.17
pIC50 [3]: 6.51
Activity [4]: Dose-Dependent Effect
Activity [5]: Tde
Activity [6]: inactive
inhibition [7]: Active
Activity [8]: Active
Activity [9]: 14.1%
Activity [10]: 32.3%
Activity [11]: Dose-Dependent Effect
Activity [12]: Active
Activity [13]: Active
Activity [14]: Active
Activity [15]: Dose-Dependent Effect
Activity [16]: Dose-Dependent Effect
Activity [17]: 87.85%
Activity [18]: Active
Activity [19]: Dose-Dependent Effect
microsomal CLint [20]: 17.8 µL/min/mg
Activity [21]: Active
Activity [22]: Active
Activity [23]: Active
